Target: T1, a4b7 integrin interaction with MadCAM-1 (Homo sapiens, UniProt P13612+P26010)
T1 construct: capture of a4b7 integrin expressing cells, RPMI8866; endogenous in cells; host or cells: RPMI8866
T1 sequence (P13612 34-1032): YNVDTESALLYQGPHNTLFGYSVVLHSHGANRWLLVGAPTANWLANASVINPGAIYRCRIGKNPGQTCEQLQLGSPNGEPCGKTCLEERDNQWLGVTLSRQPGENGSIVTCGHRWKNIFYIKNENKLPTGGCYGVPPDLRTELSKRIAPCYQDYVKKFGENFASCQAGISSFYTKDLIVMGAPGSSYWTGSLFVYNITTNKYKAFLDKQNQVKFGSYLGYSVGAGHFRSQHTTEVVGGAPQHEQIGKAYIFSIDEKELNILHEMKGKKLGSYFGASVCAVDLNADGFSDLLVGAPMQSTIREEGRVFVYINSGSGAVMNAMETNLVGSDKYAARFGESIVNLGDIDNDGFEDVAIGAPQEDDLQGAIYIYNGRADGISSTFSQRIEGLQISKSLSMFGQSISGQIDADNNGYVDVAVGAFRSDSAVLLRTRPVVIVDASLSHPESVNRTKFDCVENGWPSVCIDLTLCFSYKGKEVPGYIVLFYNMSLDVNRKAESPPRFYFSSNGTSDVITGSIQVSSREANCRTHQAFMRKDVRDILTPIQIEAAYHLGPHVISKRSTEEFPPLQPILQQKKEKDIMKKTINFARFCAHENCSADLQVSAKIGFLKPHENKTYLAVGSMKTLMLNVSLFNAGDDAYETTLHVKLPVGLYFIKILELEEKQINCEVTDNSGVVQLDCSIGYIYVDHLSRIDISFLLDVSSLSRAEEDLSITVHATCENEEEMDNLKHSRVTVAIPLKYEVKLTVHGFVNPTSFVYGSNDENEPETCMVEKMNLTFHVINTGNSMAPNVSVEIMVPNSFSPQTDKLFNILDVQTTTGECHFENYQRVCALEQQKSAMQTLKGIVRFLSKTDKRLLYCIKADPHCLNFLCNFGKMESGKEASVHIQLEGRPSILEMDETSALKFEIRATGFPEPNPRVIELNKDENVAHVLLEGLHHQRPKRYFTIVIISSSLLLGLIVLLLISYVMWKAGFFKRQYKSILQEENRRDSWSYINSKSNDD
T1 sequence (P26010 20-798): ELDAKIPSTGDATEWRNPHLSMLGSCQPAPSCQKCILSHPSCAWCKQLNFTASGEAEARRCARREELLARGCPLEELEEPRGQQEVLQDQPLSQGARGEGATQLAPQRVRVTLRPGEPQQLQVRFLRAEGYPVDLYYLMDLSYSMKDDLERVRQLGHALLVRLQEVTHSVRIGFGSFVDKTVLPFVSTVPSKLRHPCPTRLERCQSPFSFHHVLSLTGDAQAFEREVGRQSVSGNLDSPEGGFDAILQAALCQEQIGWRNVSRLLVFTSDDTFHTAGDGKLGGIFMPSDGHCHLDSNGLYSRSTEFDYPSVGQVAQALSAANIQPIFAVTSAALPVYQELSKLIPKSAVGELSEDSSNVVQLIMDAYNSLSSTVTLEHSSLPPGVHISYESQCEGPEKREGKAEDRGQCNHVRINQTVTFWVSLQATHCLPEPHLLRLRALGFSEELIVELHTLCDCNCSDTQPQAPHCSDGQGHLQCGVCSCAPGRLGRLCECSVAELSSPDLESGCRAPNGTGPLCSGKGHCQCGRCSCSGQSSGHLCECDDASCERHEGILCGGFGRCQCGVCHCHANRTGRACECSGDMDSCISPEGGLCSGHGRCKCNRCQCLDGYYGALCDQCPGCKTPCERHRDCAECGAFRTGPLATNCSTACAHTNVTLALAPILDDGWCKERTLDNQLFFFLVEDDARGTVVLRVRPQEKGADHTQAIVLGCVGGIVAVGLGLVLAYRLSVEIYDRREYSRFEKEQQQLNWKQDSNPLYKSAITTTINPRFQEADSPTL
Assay: a4b7 Cell Capture Assay (RPMI8866 cells on MAdCAM-1 Fc coated plates)
Type: cell-based
Conditions: 50% human serum, 1 mM MgCl2, 1 hour incubation, CellTiter-Glo luminescence, read-out: a4B7 cell capture assay RMPI8866-MadCAM EC50
Outline: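 RPMI8866 cells (1.0×10^6 cells/mL) in 1 mM MgCl2, 25 mM HEPES, 50% human serum were added to plates coated with human MAdCAM-1–IgG1 Fc (1.0 μg/mL) and exposed to compound (9-point, 0.08–1000 nM, 0.1% DMSO) for 1 h at 37 °C. Bound cells were read by CellTiter-Glo luminescence. IC50 came from 4-parameter fit of normalized % inhibition.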

| SMILES | EC50 [nM] |
| --- | --- |
| COC1CN(c2cc(C)c3c(c2)Oc2ccc(F)c(c2)[C@H](n2cc(CCN4CC(F)C4)c(C(F)(F)F)cc2=O)C(=O)N[C@@H](CC(=O)O)c2cc-3cc(C)c2F)C1 (single isomer, unassigned) [Example 41] | 21 |
| Cc1cc2cc(c1F)[C@H](CC(=O)O)NC(=O)[C@@H](n1cc(CCN3CC(F)C3)c(C(F)(F)F)cc1=O)c1cc(ccc1F)Oc1nn(C)cc1-2 (single isomer, unassigned) [Example 43] | 480 |
| Cc1cc2cc(c1F)[C@H](CC(=O)O)NC(=O)[C@@H](n1cc(CCN3CC(F)(F)C3)c(C(F)(F)F)cc1=O)c1cc(ccc1F)Oc1cccc(C)c1-2 (single isomer, unassigned) [Example 45] | 1.8 |
| Cc1cc2cc(c1F)[C@H](CC(=O)O)NC(=O)[C@@H](n1cc(CCN3CC(F)C3)c(C(F)(F)F)cc1=O)c1cc(ccc1F)Oc1cc(C#N)cc(C)c1-2 (single isomer, unassigned) [Example 46] | 1.6 |
| Cc1cc2cc(c1F)[C@H](CC(=O)O)NC(=O)[C@@H](n1cc(CCN3CC(F)C3)c(C(F)(F)F)cc1=O)c1cc(ccc1F)COc1cc(Cl)cc(C)c1-2 (single isomer, unassigned) [Example 47] | 42 |
| Cc1cc2cc(c1F)[C@H](CC(=O)O)NC(=O)[C@@H](n1cc(CCN3CC(F)C3)c(C(F)(F)F)cc1=O)c1cc(cc(Cl)c1F)COc1cccc(C)c1-2 (single isomer, unassigned) [Example 49] | 4.9 |
| Cc1cc2cc(c1F)[C@H](CC(=O)O)NC(=O)[C@@H](n1cc(CCN3CC(F)(F)C3)c(C(F)(F)F)cc1=O)c1cc(ccc1F)COc1cccc(C)c1-2 (single isomer, unassigned) [Example 53] | 11 |
| Cc1cc2cc(c1F)[C@H](CC(=O)O)NC(=O)[C@@H](n1cc(CCN3CC(F)C3)c(C(F)(F)F)cc1=O)c1cc(ccc1F)Oc1cc(C3COC3)cc(C)c1-2 (single isomer, unassigned) [Example 57] | 2.6 |
| Cc1cc2cc(c1F)[C@H](CC(=O)O)NC(=O)[C@@H](n1cc(CCN3CC(F)C3)c(C(F)(F)F)cc1=O)c1cc(ccc1Cl)COc1cccc(C)c1-2 (single isomer, unassigned) [Example 58] | 7 |
| Cc1cc2cc(c1F)[C@H](CC(=O)O)NC(=O)[C@@H](n1cc(CCN3CC(F)C3)c(C(F)(F)F)cc1=O)c1cc(ccc1F)COc1ccc(F)c(C)c1-2 (single isomer, unassigned) [Example 61] | 42 |
| Cc1cc2cc(c1F)[C@H](CC(=O)O)NC(=O)[C@@H](n1cc(CCN3CC(F)C3)cc(C)c1=O)c1cc(ccc1F)Oc1cccc(C)c1-2 (single isomer, unassigned) [Example 66] | 0.4 |
| Cc1cc2cc(c1F)[C@H](CC(=O)O)NC(=O)[C@@H](n1cc(CCN3CC(F)C3)c(C(F)(F)F)cc1=O)c1cc(ccc1F)COc1nn(CC3CC3)cc1-2 (single isomer, unassigned) [Example 70] | > 100 |
| Cc1ccc2cc1[C@H](n1cc(CCN3CC(F)C3)c(C(F)(F)F)cc1=O)C(=O)N[C@@H](CC(=O)O)c1cc(cc(C)c1F)-c1c(C)cccc1O2 (single isomer, unassigned) [Example 71] | 3.5 |
| Cc1cccc2c1-c1cc(c(C)s1)[C@H](CC(=O)O)NC(=O)[C@@H](n1cc(CCN3CC(F)C3)c(C(F)(F)F)cc1=O)c1cc(ccc1F)O2 (single isomer, unassigned) [Example 72] | 16 |
| Cc1cccc2c1-c1cc(C3CC3)c(F)c(c1)[C@H](CC(=O)O)NC(=O)[C@@H](n1ccc(C(F)(F)F)cc1=O)c1cc(ccc1F)O2 (single isomer, unassigned) [Example 73] | 27 |

Results, then the compound that gave them:

| EC50 [nM] | SMILES |
| --- | --- |
| 13 | Cc1cc2cc(c1F)[C@H](CC(=O)O)NC(=O)[C@@H](n1ccc(C(F)(F)F)cc1=O)c1cc(ccc1F)Oc1cccc(C)c1-2 (single isomer, unassigned) [Example 42] |
| 160 | Cc1cc2cc(c1F)[C@H](CC(=O)O)NC(=O)[C@@H](n1ccc(C(F)(F)F)cc1=O)c1cc(ccc1F)COc1cccc(C)c1-2 (single isomer, unassigned) [Example 44] |
| 0.5 | Cc1cc2cc(c1F)[C@H](CC(=O)O)NC(=O)[C@@H](n1cc(CCN3CC(F)C3)c(C(F)(F)F)cc1=O)c1cc(ccc1F)Oc1cc(C(C)(C)O)cc(C)c1-2 (single isomer, unassigned) [Example 48] |
| > 100 | Cc1cc2cc(c1F)[C@H](CC(=O)O)NC(=O)[C@@H](n1cc(CCN3CC(F)C3)c(C(F)(F)F)cc1=O)c1cc(ccc1F)COc1ccc(F)cc1-2 (single isomer, unassigned) [Example 50] |
| 180 | Cc1cc2cc(c1F)[C@H](CC(=O)O)NC(=O)[C@@H](n1cc(CCN3CC(F)C3)c(C(F)(F)F)cc1=O)c1cc(ccc1F)Oc1ccc(F)cc1-2 (single isomer, unassigned) [Example 52] |
| 27 | Cc1cc2cc(c1F)[C@H](CC(=O)O)NC(=O)[C@@H](n1cc(CCN3CC(F)C3)c(C(F)(F)F)cc1=O)c1cc(ccc1F)COc1cc(C#N)cc(C)c1-2 (single isomer, unassigned) [Example 54] |
| 380 | Cc1cc2cc(c1F)[C@H](CC(=O)O)NC(=O)[C@@H](n1cc(CCN3CC(F)C3)c(C(F)(F)F)cc1=O)c1cc(ccc1F)Oc1nn(CC3CC3)cc1-2 (single isomer, unassigned) [Example 60] |
| 33 | Cc1cc2cc(c1F)[C@H](CC(=O)O)NC(=O)[C@@H](n1cc(CCN3CCC(F)(F)CC3)c(C(F)(F)F)cc1=O)c1cc(ccc1F)COc1cccc(C)c1-2 (single isomer, unassigned) [Example 62] |
| 10 | Cc1cc2cc(c1F)[C@H](CC(=O)O)NC(=O)[C@@H](n1cc(CCN3CCC(F)(F)CC3)c(C(F)(F)F)cc1=O)c1cc(ccc1F)Oc1cccc(C)c1-2 (single isomer, unassigned) [Example 63] |
| 6.4 | Cc1cc2cc(c1F)[C@H](CC(=O)O)NC(=O)[C@@H](n1cc(CCN3CC(F)C3)c(C(F)(F)F)cc1=O)c1cc(ccc1F)Oc1cc(C(F)(F)F)cc(C)c1-2 (single isomer, unassigned) [Example 64] |
| 190 | Cc1cccc2c1-c1cc(c(F)c(C(F)(F)F)c1)[C@H](CC(=O)O)NC(=O)[C@@H](n1c(=O)c3ccncc3n(C)c1=O)c1cc(ccc1F)CO2 (single isomer, unassigned) [Example 67] |
| 0.38 | Cc1cc2cc(c1F)[C@H](CC(=O)O)NC(=O)[C@@H](n1c(=O)c3ccncc3n(C)c1=O)c1cc(ccc1F)Oc1cccc(C)c1-2 (single isomer, unassigned) [Example 69] |
| 20 | Cc1ccc2cc1[C@H](n1cc(CCN3CC(F)C3)c(C(F)(F)F)cc1=O)C(=O)N[C@@H](CC(=O)O)c1cc(cc(C)c1F)-c1c(C)cccc1OC2 (single isomer, unassigned) [Example 74] |
| > 100 | Cc1cccc2c1-c1cc(c(C)s1)[C@H](CC(=O)O)NC(=O)[C@@H](n1cc(CCN3CC(F)C3)c(C(F)(F)F)cc1=O)c1cc(ccc1F)CO2 (single isomer, unassigned) [Example 75] |
| 39 | Cc1cc2cc(c1F)[C@H](CC(=O)O)NC(=O)[C@@H](n1ccc(C(F)(F)F)c(Cl)c1=O)c1cc(ccc1F)Oc1cccc(C)c1-2 (single isomer, unassigned) [Example 76] |
